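Values below derive from 48-hour exposures of cells grown in 96-well plates, with endpoints linearly interpolated between the two concentrations bracketing the appropriate inhibition level. Here, GI50 denotes the concentration required for 50% inhibition of growth.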 Active and inactive are the calls of the source. Rule as the data show it: active = GI50 up to about 1.1 µM and inactive = higher.
Tests used:
Test in all cases: inhibition of tumour cell growth, NCI panel, 48 h
Malme-3M = test system: Malme-3M
OVCAR-4 = test system: OVCAR-4
NCI/ADR-RES = test system: NCI/ADR-RES
SK-MEL-5 = test system: SK-MEL-5
MDA-MB-435 = test system: MDA-MB-435
SW-620 = test system: SW-620
NCI-H226 = test system: NCI-H226
UO-31 = test system: UO-31
ACHN = test system: ACHN
HOP-62 = test system: HOP-62
HOP-92 = test system: HOP-92
LOX IMVI = test system: LOX IMVI
RXF 393 = test system: RXF 393
SN12C = test system: SN12C
MDA-N = test system: MDA-N
OVCAR-8 = test system: OVCAR-8
SR = test system: SR
SF-295 = test system: SF-295
NCI-H23 = test system: NCI-H23
SK-MEL-28 = test system: SK-MEL-28
SF-539 = test system: SF-539
IGROV-1 = test system: IGROV-1
OVCAR-5 = test system: OVCAR-5
CAKI-1 = test system: CAKI-1
KM12 = test system: KM12
T47D = test system: T47D
SNB-19 = test system: SNB-19
COLO 205 = test system: COLO 205
MCF7 = test system: MCF7
HCT-15 = test system: HCT-15
A498 = test system: A498
MDA-MB-231 = test system: MDA-MB-231
HCT-116 = test system: HCT-116
M14 = test system: M14
SK-MEL-2 = test system: SK-MEL-2
EKVX = test system: EKVX
U-251 = test system: U-251
TK-10 = test system: TK-10
HT-29 = test system: HT-29
MOLT-4 = test system: MOLT-4
K562 = test system: K562
CCRF-CEM = test system: CCRF-CEM
PC-3 = test system: PC-3
HL-60 = test system: HL-60
SF-268 = test system: SF-268
UACC-257 = test system: UACC-257
NCI-H522 = test system: NCI-H522
Hs-578T = test system: Hs-578T
BT-549 = test system: BT-549
A549 = test system: A549
SNB-75 = test system: SNB-75
DU-145 = test system: DU-145
SK-OV-3 = test system: SK-OV-3
OVCAR-3 = test system: OVCAR-3
HCC 2998 = test system: HCC 2998
NCI-H460 = test system: NCI-H460
786-0 = test system: 786-0
UACC-62 = test system: UACC-62
RPMI-8226 = test system: RPMI-8226

O=C1C=C/C(=C/[C@H]2SSC=C[C@]23C=CC(=O)C3)C1
GI50 (Malme-3M): 16.9 µM (inactive)
GI50 (OVCAR-4): 30 µM (inactive)
GI50 (NCI/ADR-RES): 23.8 µM (inactive)
GI50 (SK-MEL-5): 16.9 µM (inactive)
GI50 (MDA-MB-435): 17.7 µM (inactive)
GI50 (SW-620): 11.9 µM (inactive)
GI50 (NCI-H226): 6.41 µM (inactive)
GI50 (UO-31): 14.8 µM (inactive)
GI50 (ACHN): 18.1 µM (inactive)
GI50 (HOP-62): 27.9 µM (inactive)
GI50 (HOP-92): 20.6 µM (inactive)
GI50 (LOX IMVI): 10.3 µM (inactive)
GI50 (RXF 393): 13.3 µM (inactive)
GI50 (SN12C): 19.3 µM (inactive)
GI50 (MDA-N): 17.5 µM (inactive)
GI50 (OVCAR-8): 25.9 µM (inactive)
GI50 (SR): 1.75 µM (inactive)
GI50 (SF-295): 30.7 µM (inactive)
GI50 (NCI-H23): 19.2 µM (inactive)
GI50 (SK-MEL-28): 18.9 µM (inactive)
GI50 (SF-539): 12.2 µM (inactive)
GI50 (IGROV-1): 17.8 µM (inactive)
GI50 (OVCAR-5): 13 µM (inactive)
GI50 (CAKI-1): 9.91 µM (inactive)
GI50 (KM12): 21.3 µM (inactive)
GI50 (T47D): 36.1 µM (inactive)
GI50 (SNB-19): 36.1 µM (inactive)
GI50 (COLO 205): 13 µM (inactive)
GI50 (MCF7): 5.79 µM (inactive)
GI50 (HCT-15): 14.9 µM
GI50 (A498): 17.6 µM (inactive)
GI50 (MDA-MB-231): 28.1 µM (inactive)
GI50 (HCT-116): 7.36 µM (inactive)
GI50 (M14): 17.2 µM (inactive)
GI50 (SK-MEL-2): 20 µM (inactive)
GI50 (EKVX): 17.5 µM (inactive)
GI50 (U-251): 28.5 µM (inactive)
GI50 (TK-10): 24.7 µM (inactive)
GI50 (HT-29): 11 µM (inactive)
GI50 (MOLT-4): 1.36 µM (inactive)
GI50 (K562): 5.3 µM (inactive)
GI50 (CCRF-CEM): 2.54 µM (inactive)
GI50 (PC-3): 24.7 µM (inactive)
GI50 (HL-60): 2.38 µM (inactive)
GI50 (SF-268): 26.5 µM (inactive)
GI50 (UACC-257): 28.1 µM (inactive)
GI50 (NCI-H522): 11 µM (inactive)
GI50 (Hs-578T): 10.8 µM (inactive)
GI50 (BT-549): 18.9 µM (inactive)
GI50 (A549): 22.8 µM (inactive)
GI50 (SNB-75): 33.7 µM (inactive)
GI50 (DU-145): 20.2 µM (inactive)
GI50 (SK-OV-3): 49.7 µM (inactive)
GI50 (OVCAR-3): 26.7 µM (inactive)
GI50 (HCC 2998): 20.6 µM (inactive)
GI50 (NCI-H460): 29.3 µM (inactive)
GI50 (786-0): 7.55 µM (inactive)
GI50 (UACC-62): 18 µM (inactive)

Cn1cnc(N)c(N=O)c1=O
GI50 (Malme-3M): > 10 µM (inactive)
GI50 (OVCAR-4): > 10 µM (inactive)
GI50 (NCI/ADR-RES): > 10 µM (inactive)
GI50 (SK-MEL-5): > 10 µM (inactive)
GI50 (MDA-MB-435): > 10 µM (inactive)
GI50 (SW-620): > 10 µM (inactive)
GI50 (NCI-H226): > 10 µM (inactive)
GI50 (ACHN): > 10 µM (inactive)
GI50 (HOP-62): > 10 µM (inactive)
GI50 (LOX IMVI): > 10 µM (inactive)
GI50 (RXF 393): > 10 µM (inactive)
GI50 (SN12C): > 10 µM (inactive)
GI50 (MDA-N): > 10 µM (inactive)
GI50 (OVCAR-8): > 10 µM (inactive)
GI50 (SR): > 10 µM (inactive)
GI50 (SF-295): > 10 µM (inactive)
GI50 (RPMI-8226): > 10 µM (inactive)
GI50 (NCI-H23): > 10 µM (inactive)
GI50 (SK-MEL-28): > 10 µM (inactive)
GI50 (SF-539): > 10 µM (inactive)
GI50 (IGROV-1): > 10 µM (inactive)
GI50 (OVCAR-5): > 10 µM (inactive)
GI50 (CAKI-1): > 10 µM (inactive)
GI50 (KM12): > 10 µM (inactive)
GI50 (T47D): > 10 µM (inactive)
GI50 (SNB-19): > 10 µM (inactive)
GI50 (COLO 205): > 10 µM (inactive)
GI50 (MCF7): > 10 µM (inactive)
GI50 (HCT-15): > 10 µM
GI50 (A498): > 10 µM (inactive)
GI50 (MDA-MB-231): > 10 µM (inactive)
GI50 (HCT-116): > 10 µM (inactive)
GI50 (M14): > 10 µM (inactive)
GI50 (SK-MEL-2): > 10 µM (inactive)
GI50 (EKVX): > 10 µM (inactive)
GI50 (U-251): > 10 µM (inactive)
GI50 (TK-10): > 10 µM (inactive)
GI50 (HT-29): > 10 µM (inactive)
GI50 (MOLT-4): > 10 µM (inactive)
GI50 (K562): > 10 µM (inactive)
GI50 (CCRF-CEM): > 10 µM (inactive)
GI50 (PC-3): > 10 µM (inactive)
GI50 (HL-60): > 10 µM (inactive)
GI50 (SF-268): > 10 µM (inactive)
GI50 (UACC-257): > 10 µM (inactive)
GI50 (NCI-H522): > 10 µM (inactive)
GI50 (Hs-578T): > 10 µM (inactive)
GI50 (BT-549): > 10 µM (inactive)
GI50 (A549): > 10 µM (inactive)
GI50 (SNB-75): > 10 µM (inactive)
GI50 (DU-145): > 10 µM (inactive)
GI50 (SK-OV-3): > 10 µM (inactive)
GI50 (OVCAR-3): > 10 µM (inactive)
GI50 (HCC 2998): > 10 µM (inactive)
GI50 (NCI-H460): > 10 µM (inactive)
GI50 (786-0): > 10 µM (inactive)
GI50 (UACC-62): > 10 µM (inactive)

CC(C)=CCOc1cc(NC(=S)c2ccoc2C)ccc1Cl [UC 781]
GI50 (Malme-3M): > 100 µM (inactive)
GI50 (OVCAR-4): > 100 µM (inactive)
GI50 (NCI/ADR-RES): > 100 µM (inactive)
GI50 (SK-MEL-5): > 100 µM (inactive)
GI50 (MDA-MB-435): > 100 µM (inactive)
GI50 (SW-620): > 100 µM (inactive)
GI50 (NCI-H226): 57.4 µM (inactive)
GI50 (UO-31): > 100 µM (inactive)
GI50 (ACHN): > 100 µM (inactive)
GI50 (HOP-62): 84.1 µM (inactive)
GI50 (HOP-92): 8.77 µM (inactive)
GI50 (LOX IMVI): 14.1 µM (inactive)
GI50 (RXF 393): > 100 µM (inactive)
GI50 (SN12C): 34.7 µM (inactive)
GI50 (MDA-N): > 100 µM (inactive)
GI50 (OVCAR-8): 34.8 µM (inactive)
GI50 (SR): > 100 µM (inactive)
GI50 (SF-295): > 100 µM (inactive)
GI50 (RPMI-8226): > 100 µM (inactive)
GI50 (NCI-H23): > 100 µM (inactive)
GI50 (SK-MEL-28): > 100 µM (inactive)
GI50 (SF-539): > 100 µM (inactive)
GI50 (IGROV-1): 65.2 µM (inactive)
GI50 (OVCAR-5): > 100 µM (inactive)
GI50 (CAKI-1): > 100 µM (inactive)
GI50 (KM12): > 100 µM (inactive)
GI50 (T47D): 5.07 µM (inactive)
GI50 (SNB-19): 81.1 µM (inactive)
GI50 (COLO 205): > 100 µM (inactive)
GI50 (MCF7): > 100 µM (inactive)
GI50 (HCT-15): > 100 µM
GI50 (A498): > 100 µM (inactive)
GI50 (MDA-MB-231): 35.5 µM (inactive)
GI50 (HCT-116): > 100 µM (inactive)
GI50 (SK-MEL-2): > 100 µM (inactive)
GI50 (EKVX): > 100 µM (inactive)
GI50 (U-251): 48.5 µM (inactive)
GI50 (TK-10): > 100 µM (inactive)
GI50 (HT-29): > 100 µM (inactive)
GI50 (MOLT-4): 9.38 µM (inactive)
GI50 (CCRF-CEM): 39.6 µM (inactive)
GI50 (PC-3): > 100 µM (inactive)
GI50 (SF-268): 45.5 µM (inactive)
GI50 (UACC-257): > 100 µM (inactive)
GI50 (NCI-H522): > 100 µM (inactive)
GI50 (Hs-578T): 48.6 µM (inactive)
GI50 (BT-549): > 100 µM (inactive)
GI50 (A549): > 100 µM (inactive)
GI50 (SNB-75): 16.3 µM (inactive)
GI50 (DU-145): > 100 µM (inactive)
GI50 (SK-OV-3): > 100 µM (inactive)
GI50 (OVCAR-3): > 100 µM (inactive)
GI50 (HCC 2998): > 100 µM (inactive)
GI50 (NCI-H460): > 100 µM (inactive)
GI50 (786-0): > 100 µM (inactive)
GI50 (UACC-62): > 100 µM (inactive)
